From patent publication US20010008891A1, “PHARMACEUTICAL COMPOSITIONS COMPRISING A XANTHINE AND A CATECHIN” (priority 1998, published 2001) come the findings set out here.

This assay concerns human platelet rich plasma. In words: ADP induced platelet aggregation test in human platelet rich plasma. Format: cell-based.

Protocol: The antiplatelet aggregatory activity was measured using human platelet rich plasma as described below, and in Subbiah et al. Brazilian Journal of Medical and Biological Research 1988; 21: 535-538.
Platelet-rich plasma (PRP) was obtained by centrifuging blood collected in 3.8% trisodium citrate (9:1, v/v) from human volunteers or from the blood bank for 15 minutes at 700 rpm. Remaining blood was centrifuged at 2500 rpm for 25 minutes to obtain platelet-poor plasma (PPP). The platelets were quantified with an electronic counter (Coulter Electronics, Inc., Hialeah, Fla.). The platelet count was adjusted to 300,000-350,000/mm^3 with PPP, and 0.45 ml used in each test of aggregation.
ADP (Sigma Chemical Co. St. Louis, Mo.) (0.1 mg/ml), and arachidonic acid (NuCheck Pre, Elysian, Minn.) (1.0 mg/ml in 20 mM Na2CO3) were used as aggregatory agents. Samples were warmed to 37° C. with stirring for approximately two minutes prior to the addition of 50 μl of aggregating agents. Guarana (or its fractions) or caffeine (alone or in combination with catechins) were added before the addition of ADP or arachidonic acid. The change in percentage light transmission was recorded with a dual aggregometer (Chrono-Log Co, Havertown, Pa.) after addition of aggregation agents.

Turning to `Cn1c(=O)c2c(ncn2C)n(C)c1=O` [caffeine], the “platelet aggregation inhibitory activity (in words)” value was “only weakly active”.
